Measurements from ChEMBL document CHEMBL5550222, “Synthesis and Biological Evaluation of Novel Psidium Meroterpenoid Derivatives against Cisplatin-Induced Acute Kidney Injury” (J Med Chem, 2024).
The source made the active and inactive calls. No cut-off for these calls is given here.

Assays:
HK-2 [1] = assay: Protection against cisplatin-induced nephrotoxicity in human HK-2 cells assessed as cell viability at 5 uM preincubated with compound for 2 hrs followed by cisplatin induction and measured after 72 hrs by MTT assay (reference value: 37.37 +/- 1.35%); format: functional; details: time 74 hrs, read-out: Activity
HK-2 [2] = assay: Protection against cisplatin-induced nephrotoxicity in human HK-2 cells assessed as cell viability at 1 uM preincubated with compound for 2 hrs followed by cisplatin induction and measured after 72 hrs by MTT assay (reference value: 37.37 +/- 1.35%); format: functional; details: time 74 hrs, read-out: Activity
HK-2 [3] = assay: Protection against cisplatin-induced nephrotoxicity in human HK-2 cells assessed as cell viability at 10 uM preincubated with compound for 2 hrs followed by cisplatin induction and measured after 72 hrs by MTT assay (reference value: 37.37 +/- 1.35%); format: functional; details: time 74 hrs, read-out: Activity
[4] = Cytotoxicity against human HK-2 cells incubated for 72 hrs by MTT assay; format: toxicity, cell-based
HK-2 [5] = assay: Protection against cisplatin-induced nephrotoxicity in human HK-2 cells at 5 to 10 uM preincubated with compound for 2 hrs followed by cisplatin induction and measured after 72 hrs by MTT assay; format: functional, cell-based; details: dose 5-10 µM, time 74.0 hrs

Compound | viability at 5 µM (HK-2 [1]) | viability at 1 µM (HK-2 [2]) | viability at 10 µM (HK-2 [3]) | IC50 at 72 h [4] | Activity (HK-2 [5])
CC12CCCCC1Cc1c(O)c(C=O)c(O)c(C(=O)c3ccccc3)c1O2 (configuration not stated) | 41.3% | 33.6% | 42.5% | > 10 µM | 
COc1c(C=O)c2c(c(OC)c1C(=O)c1ccccc1)CC1C[C@@H]3[C@H](CC1(C)O2)C3(C)C (some centres not stated) | 30.8% | 30.1% | 35.5% | > 10 µM | 
CC12C[C@H]3[C@@H](CC1Cc1c(O)c(C=O)c(O)c(C(=O)c4ccccc4)c1O2)C3(C)C (some centres not stated) |  |  |  | 7.81 µM | 
COc1c2c(c(CN3CCN(C)CC3)c(OC)c1C(=O)c1ccccc1)OC1(C)CCCC1C2 (configuration not stated) | 39.4% | 36.4% | 38.3% | > 10 µM | 
CC1Cc2c(O)c(C=O)c(O)c(C(=O)c3ccccc3)c2OC1(C)C (configuration not stated) | 43.6% | 39.9% | 47% | > 10 µM | 
COc1c(CN2CCN(C)CC2)c(OC)c(C(=O)c2ccccc2)c2c1CC1CCCC1(C)O2 (configuration not stated) | 37.5% | 38% | 43.7% | > 10 µM | 
COc1c2c(c(C(=O)O)c(OC)c1C(=O)c1ccccc1)OC(C)(C)C(C)C2 (configuration not stated) | 28.9% | 37.8% | 32% | > 10 µM | 
COc1c(CO)c2c(c(OC)c1C(=O)c1ccccc1)CC1C[C@@H]3[C@H](CC1(C)O2)C3(C)C (some centres not stated) |  |  |  | 6.42 µM | 
COc1c2c(c(CN3CCN(C)CC3)c(OC)c1C(=O)c1ccccc1)OC1(C)CCCCC1C2 (configuration not stated) | 37.1% | 40.2% | 37% | > 10 µM | 
COc1c(C=O)c2c(c(OC)c1C(=O)c1ccccc1)CC1CCCCC1(C)O2 (configuration not stated) | 35.2% | 34.1% | 44.9% | > 10 µM | 
COc1c(C=O)c(OC)c(C(=O)c2ccccc2)c2c1CC1CCCC1(C)O2 (configuration not stated) | 44.9% | 38.2% | 49.4% | > 10 µM | 
COc1c(CN2CCN(C)CC2)c(OC)c(C(=O)c2ccccc2)c2c1CC1CCCCC1(C)O2 (configuration not stated) | 24.2% | 30.4% | 25.9% | > 10 µM | 
COc1c2c(c(C(=O)O)c(OC)c1C(=O)c1ccccc1)OC1(C)C[C@H]3[C@@H](CC1C2)C3(C)C (some centres not stated) | 21.6% | 31.5% | 25.4% | > 10 µM | 
COc1c2c(c(C(=O)O)c(OC)c1C(=O)c1ccccc1)OC1(C)CCCC1C2 (configuration not stated) | 29.6% | 32.3% | 32.6% | > 10 µM | 
COc1c2c(c(C(=O)c3ccccc3)c(OC)c1C(=O)O)OC(C)(C)C(C)C2 (configuration not stated) | 30.4% | 33.6% | 33.4% | > 10 µM | 
CC12C[C@H]3[C@@H](CC1Cc1c(O)c(C(=O)c4ccccc4)c(O)c(C=O)c1O2)C3(C)C (some centres not stated) |  |  |  | 9.31 µM | 
COc1c2c(c(CN3CCN(C)CC3)c(OC)c1C(=O)c1ccccc1)OC(C)(C)C(C)C2 (configuration not stated) | 33% | 39.7% | 38.2% | > 10 µM | 
COc1c2c(c(C(=O)c3ccccc3)c(OC)c1C(=O)O)OC1(C)CCCC1C2 (configuration not stated) | 35.2% | 37.2% | 31.8% | > 10 µM | 
COc1c2c(c(CN3CCN(C)CC3)c(OC)c1C(=O)c1ccccc1)OC1(C)C[C@H]3[C@@H](CC1C2)C3(C)C (some centres not stated) | 41.9% | 37.5% | 40.8% | > 10 µM | 
CC12CCCC1Cc1c(O)c(C=O)c(O)c(C(=O)c3ccccc3)c1O2 (configuration not stated) | 49.6% | 41.5% | 51.7% | > 10 µM | Active

Compound | viability at 5 µM (HK-2 [1]) | viability at 1 µM (HK-2 [2]) | viability at 10 µM (HK-2 [3]) | IC50 at 72 h [4] | Activity (HK-2 [5])
COc1c(CO)c(OC)c(C(=O)c2ccccc2)c2c1CC1CCCCC1(C)O2 (configuration not stated) | 44.3% | 38.8% | 44.6% | > 10 µM | 
COc1c(C=O)c2c(c(OC)c1C(=O)c1ccccc1)CC(C)C(C)(C)O2 (configuration not stated) | 43.7% | 37.5% | 46.2% | > 10 µM | 
COc1c(CO)c(OC)c(C(=O)c2ccccc2)c2c1CC(C)C(C)(C)O2 (configuration not stated) | 31.4% | 38.3% | 34.2% | > 10 µM | 
COc1c(CN2CCN(C)CC2)c(OC)c(C(=O)c2ccccc2)c2c1CC1C[C@@H]3[C@H](CC1(C)O2)C3(C)C (some centres not stated) | 40.1% | 39.9% | 18.5% | > 10 µM | 
CC12CCCC1Cc1c(O)c(C(=O)c3ccccc3)c(O)c(C=O)c1O2 (configuration not stated) | 38.2% | 37.2% | 38.6% | > 10 µM | 
COc1c(CO)c2c(c(OC)c1C(=O)c1ccccc1)CC1CCCCC1(C)O2 (configuration not stated) | 41.8% | 37.7% | 36.9% | > 10 µM | 
CC12CCCCC1Cc1c(O)c(C(=O)c3ccccc3)c(O)c(C=O)c1O2 (configuration not stated) | 39.3% | 34.8% | 38% | > 10 µM | 
COc1c(C=O)c(OC)c(C(=O)c2ccccc2)c2c1CC(C)C(C)(C)O2 (configuration not stated) | 30.4% | 26.8% | 43.5% | > 10 µM | 
COc1c2c(c(C(=O)c3ccccc3)c(OC)c1C(=O)O)OC1(C)CCCCC1C2 (configuration not stated) | 35.9% | 38.8% | 25.7% | > 10 µM | 
COc1c2c(c(C(=O)c3ccccc3)c(OC)c1C(=O)O)OC1(C)C[C@H]3[C@@H](CC1C2)C3(C)C (some centres not stated) |  | 30.2% | 40% | > 10 µM | 
COc1c(C=O)c2c(c(OC)c1C(=O)c1ccccc1)CC1CCCC1(C)O2 (configuration not stated) | 33.4% | 37.4% | 30.8% | > 10 µM | 
COc1c2c(c(C(=O)O)c(OC)c1C(=O)c1ccccc1)OC1(C)CCCCC1C2 (configuration not stated) | 30.7% | 38.2% | 28% | > 10 µM | 
COc1c(CO)c(OC)c(C(=O)c2ccccc2)c2c1CC1CCCC1(C)O2 (configuration not stated) | 25.9% | 35% | 26.5% | > 10 µM | 
COc1c(C=O)c(OC)c(C(=O)c2ccccc2)c2c1CC1C[C@@H]3[C@H](CC1(C)O2)C3(C)C (some centres not stated) | 39.8% | 36.3% | 39% | > 10 µM | 
COc1c(C=O)c(OC)c(C(=O)c2ccccc2)c2c1CC1CCCCC1(C)O2 (configuration not stated) | 34.4% | 35.3% | 30.1% | > 10 µM | 
COc1c(CN2CCN(C)CC2)c(OC)c(C(=O)c2ccccc2)c2c1CC(C)C(C)(C)O2 (configuration not stated) | 39.2% | 37.2% | 38.9% | > 10 µM | 
COc1c(CO)c2c(c(OC)c1C(=O)c1ccccc1)CC1CCCC1(C)O2 (configuration not stated) | 37.5% | 34.9% | 45.4% | > 10 µM | 
CC1Cc2c(O)c(C(=O)c3ccccc3)c(O)c(C=O)c2OC1(C)C (configuration not stated) | 33.2% | 37.7% | 28.1% | > 10 µM | 
COc1c(CO)c(OC)c(C(=O)c2ccccc2)c2c1CC1C[C@@H]3[C@H](CC1(C)O2)C3(C)C (some centres not stated) | 43.1% | 36% | 59.2% | > 10 µM | 
